Row | SMILES | melting point [°C]
1 | CC(c1ccccc1)C(C)(C)O (stereo not given) | 46
2 | N=C(N)NS(=O)(=O)c1cc(C(F)(F)F)cc(C(F)(F)F)c1 | 194 to 197
3 | FC(F)(F)c1ccccc1-n1cc[nH]c1=S | 236 to 238
4 | Clc1cccc(I)c1Cl | 35
5 | Cn1c(=S)sc2ccccc21 | 90
6 | Oc1cc(C(F)(F)F)nc2ccc(Br)cc12 | 290
7 | NCc1ccc(-c2ccsc2)cc1 | 116 to 117
8 | CC(=O)C1(O)CCC2C3CC(C)C4=CC(=O)CCC4(C)C3CCC21C (stereo not given) | 222
9 | Cc1ccc(C(=O)C(F)(F)C(F)(F)F)cc1 | 4
10 | CCCC1CC(C(=O)NC(C(C)O)C2OC(SC)C(O)C(O)C2O)N(C)C1 (stereo not given) | 295
11 | Cc1cc(C=O)ccc1O | 119
12 | CC(=O)OC1C2=C(C(=O)C(O)C3(CC3C)C2=O)C2(C)CCC(C)=C(C)C2C1O (stereo not given) | 177 to 178
13 | OCc1ccc(N2CCCCC2)cc1 | 148 to 149
14 | C(=C\c1nn2c(COc3ccccc3)nnc2s1)/c1ccccc1 | 141 to 143
15 | COc1cc2c(cc1OC)C(c1ccc(F)cc1)N(C(C)=O)CC2 (stereo not given) | 162 to 164
16 | CC=CCC=CCCC(=O)C1OC1C(N)=O (stereo not given) | 93.5
17 | CN1CCN2c3ncccc3Cc3ccccc3C2C1 (stereo not given) | 115
18 | OC(O)C(Br)(Br)Br | 53.5
19 | CC(C)CCCC(C)C1CC[C@@]2(C)C3=CCC4[C@H](C)[C@@H](O)CC[C@]4(C)C3=CC[C@]12C (stereo not given in full) | 123
20 | CC1CCC2(OC1)OC1CC3C4CCC5CC(O)CCC5(C)C4CCC3(C)C1C2C (stereo not given) | 206
21 | O=C(O)c1cccc(-c2ccccn2)c1 | 207 to 209
22 | O=C(O)CCC(=O)CCC(=O)O | 142 to 144
23 | CN(C)C(=O)SCCCCOc1ccccc1 | 40.5

Row | SMILES | melting point [°C]
24 | Brc1ccc2ncsc2c1 | 53 to 54
25 | CC(Br)C(C)Br (stereo not given) | -24
26 | C=COCCCC | -92
27 | CC(=O)OC1(C(C)=O)CCC2C3C=C(Cl)C4=CC(=O)C=CC4(C)C3CCC21C (stereo not given) | 168
28 | CCCCc1cc2ccccc2c(O)c1C(C)=O | 62
29 | O=C1/C(=C/c2ccc([N+](=O)[O-])cc2)SC(=S)N1CNc1ccc([N+](=O)[O-])cc1 | 189
30 | CC12CC(=CO)C(=O)CC1CCC1C2CCC2(C)C1CCC2(C)O (stereo not given) | 188
31 | N#CC(=CNNc1ccccc1)c1ccccc1 | 155 to 156
32 | COc1cc2c(cc1OC)C(c1ccccc1Cl)N(C(C)=O)CC2 (stereo not given) | 186 to 188
33 | CC(=O)c1ccc(-c2ccccc2[N+](=O)[O-])o1 | 79
34 | O=[N+]([O-])c1cc([N+](=O)[O-])c(C2CO2)cc1C1CO1 (stereo not given) | 153 to 154
35 | CC(C)(O)CCCC1=CCC(C=O)CC1 (stereo not given) | -30
36 | Cc1ccc2c(c1C)CCC1C2CCC2CC(O)CCC21C (stereo not given) | 188
37 | O=C1CCCC(O)=C1Cl | 198 to 204
38 | Sc1c(Cl)c(Cl)c(Cl)c(Cl)c1Cl | 232
39 | Cc1cc(CO)nn1-c1ccccn1 | 44 to 46
40 | CC(C)N(C(=O)Cl)C(C)C | 55 to 60
41 | Cc1ccsc1 | -69
42 | N=C(N)NCC(O)CC(O)(C(=O)O)C1OC(n2cc(CO)c(N)nc2=O)C=CC1NC(=O)C(N)CO (stereo not given) | > 300
43 | O=C(c1ccco1)c1noc(-c2ccc(Cl)cc2)c1S(=O)(=O)c1ccccc1 | 140
44 | CCCCNC(=O)C(c1cc2ccccc2c2ccccc12)N(Cc1ccco1)C(=O)Cc1ccccc1 (stereo not given) | 185
45 | O=C1CSc2ccccc2N1 | 178 to 181
46 | CCC(=O)Oc1ccc(C(CC)=C(CC)c2ccc(OC(=O)CC)cc2)cc1 | 104

Row | SMILES | melting point [°C]
47 | Cc1c(F)ccc(C(=O)Cl)c1F | 37
48 | O=C1C=CC2C3C=CC(C3)C12 (stereo not given) | 56
49 | COC(=O)c1c(-c2c(Cl)cccc2Cl)noc1C | 115
50 | O=C(CF)c1ccccc1 | 29
51 | CCCCc1ccc(/N=N/c2ccc(OCCC)cc2)cc1 | 66 to 68
52 | Cc1cccc(CS(=O)(=O)Cl)c1 | 48 to 49
53 | O=C(Cl)c1ccc(Cl)nc1 | 50
54 | O=C(CCBr)N1CCN(C(=O)CCBr)CC1 | 106
55 | CN(C)c1ccc(C=C2C3=C(CCCC3)OC3=C2CCCC3)cc1 | 164
56 | C#CC1(O)CCC2C3CCc4cc(OC)ccc4C3CCC21C (stereo not given) | 150
57 | CCOc1ccc(Cc2nc(C)cc3cc(OC)c(OC)cc23)cc1OC | 124
58 | CN(C)C=C[N+](=O)[O-] | 103 to 105
59 | Cc1ccccc1-n1ncc(C=O)c1C | 99 to 100
60 | Cc1cc(=O)oc2cc(OP(=O)(O)O)ccc12 | 210
61 | CNC(=O)C(=NOC)c1ccccc1Oc1ccccc1 | 88
62 | CC(C)NNC(=O)COc1ccc(Cl)cc1 | 93.5
63 | CCOc1cccc(NC(C)=O)c1 | 97
64 | COc1ccc(C2(C)CCc3oc4c(Br)cc(Br)cc4c3-c3oc(C)cc32)cc1 (stereo not given) | 165
65 | CCCCOC(=O)C1=C(C)NC(=O)NC1c1ccc2c(c1)OCO2 (stereo not given) | 143
66 | O=c1[nH]c2scc(-c3ccccc3)c2c(=O)n1-c1ccccc1 | 305 to 308
67 | COCc1cc(O)nc(S)n1 | 220 to 223
68 | O=NN(CCCl)C(=O)NC1CCCCC1 | 90
69 | O=C(O)COC(=O)c1cc(Oc2ccc(C(F)F)cc2Cl)ccc1[N+](=O)[O-] | 65

Row | SMILES | melting point [°C]
70 | COc1ccccc1-c1nnc2n1NC(c1ccccc1)S2 (stereo not given) | 208
71 | Nc1nn2c(C(F)(F)F)cc(=O)[nH]c2c1/N=N/c1cccc2ccccc12 | 290
72 | NC(Cc1cccc2ccccc12)=NO | 127 to 129
73 | CC1(C)CC(N)CC(C)(C)N1 | 17
74 | CCOc1ccccc1N | -4
75 | N#Cc1c(O)cccc1F | 156
76 | CC(C)(C)C1=CC(=O)C(C(C)(C)C)=CC1=O | 153
77 | NC(=O)c1cc(C(F)(F)F)cc(C(F)(F)F)c1 | 162
78 | CCOC(=O)CCCCC(=O)O | 29
79 | CC(=O)c1ccc(F)cc1Br | 48 to 50
80 | COC1=CC(C)C2CC3OC(O)CC4C(C)=C(OC)C(=O)C(C2(C)C1=O)C34C (stereo not given) | 227
81 | CNC(=N[N+](=O)[O-])NCc1cnc(Cl)s1 | 177
82 | O=C(CO)[C@@H](O[C@H]1O[C@H](CO)[C@@H](O)[C@H](O)[C@H]1O)[C@H](O)[C@H](O)CO | 168
83 | CCCCC(=O)NN | 60
84 | NCCCP(=O)(O)O | 290 to 294
85 | N#Cc1ccc(C=NNC(N)=S)cc1 | 243 to 247
86 | N#Cc1ccc(-n2cccc2)cc1 | 103 to 105
87 | Cc1ccc(C(c2ccc(C)o2)c2cc([N+](=O)[O-])ccc2O)o1 | 143
88 | Cc1nnc(SCc2ccccc2)n1N=Cc1ccc(Cl)cc1 | 120 to 121
89 | NS(=O)(=O)c1cc2c(s1)C(O)CCS2 (stereo not given) | 158
90 | FC(F)(F)C(Cl)C(F)(F)F | -120
